The values below come from patent publication US20210077501A1, “COMPOSITIONS FOR PREVENTING OR TREATING UVEITIS” (Chong Kun Dang Pharmaceutical Corp., priority 2018, published 2021).

Data set [1] relates to CTLA4 (cytotoxic T-lymphocyte-associated protein 4) in the regulatory T cells. As to the kind of experiment: CTLA4 expression in regulatory T cells (iTreg) by flow cytometry. The class given is cell-based, mouse. The settings on record: for level of CTLA4 expression in the T cells (function of regulatory T cells): iTreg, six days treatment, concentration not specified. How it is done:
To identify if the compounds according to the present invention regulate a function of regulatory T cells in immune responses, compounds 255, 280, 374, 416 and 476 were treated, and then an expression level of an immune checkpoint receptor CTLA4 (cytotoxic T-lymphocyte-associated protein 4) in the regulatory T cells was measured by means of flow cytometry.
Specifically, a six-week old C57BL6 male mice were supplied from Central Lab Animal Inc., then acclimated for one week, and then used in an experiment. A spleen was isolated from the mouse, and then treated with collagenase D (Roche, 11088866001), such that splenocytes were isolated therefrom. CD4+CD25-T cells were isolated by means of a CD4+CD25+ regulatory T cell isolation kit (Miltenyi Biotec, 130-091-041), and then CD4+CD25-T cells (at a ratio of 5×10^5 cells/well) were treated with an anti-CD3E/anti-CD28 mAb bead (T cell activation/expansion kit, Miltenyi Biotec, 130-093627) and a mouse recombinant TGF-β2 for six days, such that they were differentiated into iTreg. A test drug was simultaneously treated for six days, during which the cells were differentiated into iTreg. After that, the cells were incubated by means of anti-CD4/anti-CD25 mAb (eBioscience, 25-0042-82, 17-0251-82) at 4° C. for 20 minutes, and then labeling was performed. For intracytoplasmic staining, permeabilization was performed by means of Fix/permeabilization buffer (eBioscience, 00-5523-00), then labeling was performed by means of anti-FOXP3-Alexafluor488 (eBioscience, 53-5773-82) and anti-CTLA4-PE (eBioscience, 12-1522-82), and then flow cytometry was performed by means of FACS LSR Fortessa (BD bioscience).
A general note: Flow cytometry measures light scatter and fluorescence of single cells or particles in a stream.

Data set [2] deals with reactive T cells. As to the kind of experiment: Treg suppression assay: proliferation of reactive T cells (eFluor670 dilution, flow cytometry). The class given is cell-based, mouse. The settings on record: Teff:Treg 2:1, three days; concentration not specified. The method, then:
To identify the efficacy of the inventive compounds on suppressing the proliferation of reactive T cells in immune responses, compounds 255, 280, 374, 416 and 476 according to the present invention were cultured together with reactive T cells and regulatory T cells […], and then the suppressive efficacy of regulatory T cells was measured.
Specifically, a six-week old C57BL6 male mice were supplied from Central Lab Animal Inc., then acclimated for one week, and then used in an experiment. A spleen was isolated from the mouse, and then treated with collagenase D (Roche, 11088866001), such that splenocytes were isolated therefrom. […] were isolated by means of a CD4+CD25+ regulatory T cell isolation kit (Miltenyi Biotec, 130-091-041) according to a protocol provided by a manufacturer. Teff cells were cultured at 37° C. for ten minutes by means of eFluor®670 (Cell proliferation Dye eFluor®670, eBioscience), such that cell membranes were stained. Teff and Treg were divided into a 96 well plate at a ratio of 2:1, and then T cells were activated for three days by means of an anti-CD3E and anti-CD28 mAb magnetic bead (T cell activation/expansion kit, Miltenyi Biotec, 130-093627), such that Treg suppression assay was performed. A test drug was simultaneously treated for three days, during which the assay was performed. The divided amount of eFluor®670 labeled on the Teff cell membranes was measured, such that a degree of proliferation of T cells was evaluated accordingly. An eFluor®670-dilution plot was measured by means of a flow cytometer (FACS LSR Fortessa, BD bioscience). The suppressive ability on T cells proliferation was calculated by means of a following equation.

Data set [3] concerns TNFα secretion in LPS-stimulated human monocyte cell lines (THP-1). As to the kind of experiment: Suppression of TNFα secretion in LPS-stimulated THP-1 cells (ELISA). It is filed as cell-based. The method, then:
To identify the efficacy of the inventive compounds on suppressing a TNFα secretion in immune responses, suppression of TNFα production, which was achieved by a treatment with compounds 374, 461, 500, 530 and 532 according to the present invention in LPS-stimulated human monocyte cell lines (THP-1), was quantified by means of an enzyme immuno-assay (ELISA).
Specifically, the THP-1 cell lines (ATCC) were cultured in an RPMI-1640 medium comprising 10% FBS. The cell lines were divided into a 24 well plate at a ratio of 1×10^5 cells per well, then treated with 100 ng/mL PMA (phorbol 12-myristate 13-acetate) for 24 hours, and then differentiated into macrophage. Then, the culture medium was replaced with a new one, then treated with a test drug for 24 hours, and then treated again with 10 ng/mL LPS (E.Coli, O55:B5) for four hours for stimulation. After that, supernatant was taken and used to measure the amount of TNFα secreted from the cells by means of a Human TNFα Instant ELISA kit (eBioscience, BMS223INST) according to a protocol provided by a manufacturer.
A general note: An ELISA detects its analyte on a solid surface through an enzyme-linked reagent.

[4] abbreviates: THP-1, LPS, at both 100 nM and 300 nM.
The mark [5] stands for this setting: in comparison with LPS-induced control group, THP-1, concentration not specified.
Where [6] appears, read: THP-1, LPS, on increasing concentration of compound treatment from 100 nM to 300 nM.

For `O=C(NO)c1ccc(CN(C(=O)N2CCOCC2)c2cccc(Br)c2)cc1` [Compound 255, N-(3-bromophenyl)-N-(4-(hydroxycarbamoyl)benzyl)morpholine-4-carboxamide], the “level of CTLA4 expression in the T cells (function of regulatory T cells)” value (“level of CTLA4 expression in the T cells” for short) in data set [1] is “excellent effect”. Further, in data set [1] (treated at 1000 nM, data analysis not performed), the cytotoxicity entry is listed as “severe cytotoxicity”. The “proliferation of the reactive T cells” value in data set [2] is “excellent effect”.

In the case of `O=C(NO)c1ccc(CN(C(=O)N2CCOCC2)c2ccccn2)cc1` [Compound 280, N-(4-(hydroxycarbamoyl)benzyl)-N-(pyridine-2-yl)morpholine-4-carboxamide], the “level of CTLA4 expression in the T cells” value in data set [1] was “excellent effect”. Also, the “proliferation of the reactive T cells” value in data set [2] is listed as “excellent effect”.

As to `CN1CCN(C(=O)N(Cc2ccc(C(=O)NO)cc2)c2ccc(F)cc2F)CC1` [Compound 416, N-(2,4-difluorophenyl)-N-(4-(hydroxycarbamoyl)benzyl)-4-methylpiperazine-1-carboxamide], the “level of CTLA4 expression in the T cells” value in data set [1] is “excellent effect”. Also, the “proliferation of the reactive T cells” value in data set [2] is listed as “excellent effect”.

For `CCN1CCN(C(=O)N(Cc2ccc(C(=O)NO)cc2)c2cccc(C(F)(F)F)c2)CC1` [Compound 461, 4-ethyl-N-(4-(hydroxycarbamoyl)benzyl)-N-(3-(trifluoromethyl)phenyl)piperazine-1-carboxamide], the “level of TNFα secretion” value is recorded as “remarkably decreased down to a level at which no inflammatory response was induced by means of the LPS” in data set [3] (setting [4]) and “excellent effect” in data set [3] (setting [5]).

With `O=C(NO)c1ccc(CN(C(=O)N2CC(F)(F)C2)c2cccc(C(F)(F)F)c2)cc1` [Compound 476, 3,3-difluoro-N-(4-(hydroxycarbamoyl)benzyl)-N-(3-(trifluoromethyl)phenyl)azetidine-1-carboxamide], the “level of CTLA4 expression in the T cells” value in data set [1] was “excellent effect”. The “proliferation of the reactive T cells” value in data set [2] was “excellent effect”.

On to `O=C(NO)c1ccc(CN(C(=O)N2CCOCC2)c2cccc(CF)c2)cc1` [Compound 500, N-(3-(fluoromethyl)phenyl)-N-(4-(hydroxycarbamoyl)benzyl)morpholine-4-carboxamide], for which the “level of TNFα secretion” value in data set [3] (setting [4]) is recorded as “remarkably decreased down to a level at which no inflammatory response was induced by means of the LPS”; in data set [3] (setting [5]) it was “excellent effect”.

Consider `O=C(NO)c1ccc(CN(C(=O)N2CCOCC2)c2cccc(F)c2)cc1` [Compound 530, N-(3-fluorophenyl)-N-(4-(hydroxycarbamoyl)benzyl)morpholine-4-carboxamide], for which the “level of TNFα secretion” value in data set [3] (setting [6]) is listed as “drastically decreased”; in data set [3] (setting [5]) it was “excellent effect”.

As for `O=C(NO)c1ccc(CN(C(=O)N2CCOCC2)c2cccc(C(F)(F)F)c2)c(F)c1` [Compound 532, N-(2-fluoro-4-(hydroxycarbamoyl)benzyl)-N-(3-(trifluoromethyl)phenyl)morpholine-4-carboxamide], the results for the “level of TNFα secretion” value in data set [3] (setting [6]) and in data set [3] (setting [5]) were “drastically decreased” and “excellent effect”, respectively.
